# According to the supplement of paper PMC10307832:
# Legend:
# Assay in all cases: relative viability (nuclei count vs DMSO), 5 days (fraction); higher = more cells survive
# [1] = system: NCI-H1734
# Outline: (§1)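 For relative viability, nuclei counts in treated wells were divided by those in vehicle wells. Lung cancer cell lines had been pin-tool dosed in 1536-well plates the day after seeding and cultured for 5 days, then fixed and stained in one step (final 0.05% Triton X-100, 1% formaldehyde, 1 ug/ml Hoechst) and imaged at 4×. Doses were one drug alone or a fixed anchor-drug dose plus five library-drug doses (not always all listed) in √10 steps, and values are duplicate-plate medians.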
# [2] = system: NCI-H358
# Outline: as §1
# [3] = system: NCI-H1395
# Outline: as §1
# [4] = system: NCI-H2342
# Outline: as §1
# [5] = system: NCI-H838
# Outline: as §1
# [6] = system: BEN
# Outline: as §1
# [7] = system: NCI-H2023
# Outline: as §1
# [8] = system: NCI-H1975
# Outline: as §1
# [9] = system: NCI-H1437
# Outline: as §1
# [10] = system: LOU-NH91
# Outline: as §1
# [11] = system: NCI-H1563
# Outline: as §1
# [12] = system: NCI-H1755
# Outline: as §1
# [13] = system: NCI-H1355
# Outline: as §1
# [14] = system: HCC-366
# Outline: as §1
# [15] = system: NCI-H1651
# Outline: as §1
# [16] = system: EKVX
# Outline: as §1
# [17] = system: LCLC-103H
# Outline: as §1
# [18] = system: NCI-H441
# Outline: as §1
# [19] = system: CAL-12T
# Outline: as §1
# [20] = system: HCC-44
# Outline: as §1
# [21] = system: NCI-H2085
# Outline: as §1
# [22] = system: HCC-15
# Outline: as §1
# [23] = system: NCI-H1650
# Outline: as §1
# [24] = system: NCI-H460
# Outline: as §1
structure (smiles),measurement,setting,value
Clc1ccc(Nc2nnc(Cc3ccncc3)c3ccccc23)cc1 [Vatalanib] + Nc1nc2[nH]cc(CCc3ccc(C(=O)N[C@@H](CCC(=O)O)C(=O)O)cc3)c2c(=O)[nH]1 [Pemetrexed] (partner 0.2 µM),relative viability,[1]; first compound 0.04 µM,0.401
same,relative viability,[1]; first compound 0.1265 µM,0.42
same,relative viability,[1]; first compound 0.4 µM,0.414
same,relative viability,[1]; first compound 1.265 µM,0.427
same,relative viability,[1]; first compound 4 µM,0.379
same,relative viability,[2]; first compound 0.04 µM,0.158
same,relative viability,[2]; first compound 0.1265 µM,0.149
same,relative viability,[2]; first compound 0.4 µM,0.16
same,relative viability,[2]; first compound 1.265 µM,0.181
same,relative viability,[2]; first compound 4 µM,0.157
same,relative viability,[3]; first compound 0.04 µM,0.855
same,relative viability,[3]; first compound 0.1265 µM,0.764
same,relative viability,[3]; first compound 0.4 µM,0.767
same,relative viability,[3]; first compound 4 µM,0.842
same,relative viability,[4]; first compound 0.04 µM,0.726
same,relative viability,[4]; first compound 0.1265 µM,0.701
same,relative viability,[4]; first compound 0.4 µM,0.669
same,relative viability,[4]; first compound 1.265 µM,0.769
same,relative viability,[4]; first compound 4 µM,0.773
same,relative viability,[5]; first compound 0.04 µM,0.243
same,relative viability,[5]; first compound 0.1265 µM,0.226
same,relative viability,[5]; first compound 0.4 µM,0.261
same,relative viability,[5]; first compound 1.265 µM,0.239
same,relative viability,[5]; first compound 4 µM,0.239
same,relative viability,[6]; first compound 0.04 µM,0.662
same,relative viability,[6]; first compound 0.1265 µM,0.659
same,relative viability,[6]; first compound 0.4 µM,0.443
same,relative viability,[6]; first compound 1.265 µM,0.681
same,relative viability,[6]; first compound 4 µM,0.743
same,relative viability,[7]; first compound 0.04 µM,0.263
same,relative viability,[7]; first compound 0.1265 µM,0.21
same,relative viability,[7]; first compound 0.4 µM,0.215
same,relative viability,[7]; first compound 1.265 µM,0.242
same,relative viability,[7]; first compound 4 µM,0.202
same,relative viability,[8]; first compound 0.04 µM,0.265
same,relative viability,[8]; first compound 0.1265 µM,0.305
same,relative viability,[8]; first compound 0.4 µM,0.297
same,relative viability,[8]; first compound 1.265 µM,0.28
same,relative viability,[8]; first compound 4 µM,0.286
same,relative viability,[9]; first compound 0.04 µM,0.33
same,relative viability,[9]; first compound 0.1265 µM,0.342
same,relative viability,[9]; first compound 0.4 µM,0.328
same,relative viability,[9]; first compound 1.265 µM,0.26
same,relative viability,[9]; first compound 4 µM,0.275
same,relative viability,[10]; first compound 0.04 µM,0.417
same,relative viability,[10]; first compound 0.1265 µM,0.378
same,relative viability,[10]; first compound 0.4 µM,0.373
same,relative viability,[10]; first compound 1.265 µM,0.366
same,relative viability,[10]; first compound 4 µM,0.361
same,relative viability,[11]; first compound 0.04 µM,0.804
same,relative viability,[11]; first compound 0.1265 µM,0.772
same,relative viability,[11]; first compound 0.4 µM,0.857
same,relative viability,[11]; first compound 1.265 µM,0.758
same,relative viability,[11]; first compound 4 µM,0.77
same,relative viability,[12]; first compound 0.04 µM,0.4
same,relative viability,[12]; first compound 0.1265 µM,0.504
same,relative viability,[12]; first compound 0.4 µM,0.461
same,relative viability,[12]; first compound 1.265 µM,0.416
same,relative viability,[12]; first compound 4 µM,0.38
same,relative viability,[13]; first compound 0.04 µM,0.965
same,relative viability,[13]; first compound 0.1265 µM,1.01
same,relative viability,[13]; first compound 0.4 µM,1.08
same,relative viability,[13]; first compound 1.265 µM,0.979
same,relative viability,[13]; first compound 4 µM,0.936
same,relative viability,[14]; first compound 0.04 µM,0.148
same,relative viability,[14]; first compound 0.1265 µM,0.133
same,relative viability,[14]; first compound 0.4 µM,0.185
same,relative viability,[14]; first compound 1.265 µM,0.162
same,relative viability,[14]; first compound 4 µM,0.148
same,relative viability,[15]; first compound 0.04 µM,0.512
same,relative viability,[15]; first compound 0.1265 µM,0.558
same,relative viability,[15]; first compound 0.4 µM,0.496
same,relative viability,[15]; first compound 1.265 µM,0.543
same,relative viability,[15]; first compound 4 µM,0.526
same,relative viability,[16]; first compound 0.04 µM,0.416
same,relative viability,[16]; first compound 0.1265 µM,0.425
same,relative viability,[16]; first compound 0.4 µM,0.393
same,relative viability,[16]; first compound 1.265 µM,0.339
same,relative viability,[16]; first compound 4 µM,0.365
same,relative viability,[17]; first compound 0.04 µM,0.343
same,relative viability,[17]; first compound 0.1265 µM,0.428
same,relative viability,[17]; first compound 0.4 µM,0.449
same,relative viability,[17]; first compound 1.265 µM,0.487
same,relative viability,[17]; first compound 4 µM,0.453
same,relative viability,[18]; first compound 0.04 µM,0.249
same,relative viability,[18]; first compound 0.1265 µM,0.215
same,relative viability,[18]; first compound 0.4 µM,0.257
same,relative viability,[18]; first compound 1.265 µM,0.265
same,relative viability,[18]; first compound 4 µM,0.274
same,relative viability,[19]; first compound 0.04 µM,1.15
same,relative viability,[19]; first compound 0.1265 µM,1.15
same,relative viability,[19]; first compound 0.4 µM,1.19
same,relative viability,[19]; first compound 1.265 µM,1.12
same,relative viability,[19]; first compound 4 µM,1.22
same,relative viability,[20]; first compound 0.04 µM,0.593
same,relative viability,[20]; first compound 0.1265 µM,0.61
same,relative viability,[20]; first compound 0.4 µM,0.673
same,relative viability,[20]; first compound 1.265 µM,0.638
same,relative viability,[20]; first compound 4 µM,0.683
same,relative viability,[21]; first compound 0.04 µM,0.844
same,relative viability,[21]; first compound 0.1265 µM,0.842
same,relative viability,[21]; first compound 0.4 µM,0.976
same,relative viability,[21]; first compound 1.265 µM,0.892
same,relative viability,[21]; first compound 4 µM,0.821
same,relative viability,[22]; first compound 0.04 µM,0.234
same,relative viability,[22]; first compound 0.1265 µM,0.218
same,relative viability,[22]; first compound 0.4 µM,0.225
same,relative viability,[22]; first compound 1.265 µM,0.235
same,relative viability,[22]; first compound 4 µM,0.219
same,relative viability,[23]; first compound 0.04 µM,0.359
same,relative viability,[23]; first compound 0.1265 µM,0.305
same,relative viability,[23]; first compound 0.4 µM,0.323
same,relative viability,[23]; first compound 1.265 µM,0.388
same,relative viability,[23]; first compound 4 µM,0.388
same,relative viability,[24]; first compound 0.04 µM,0.0651
same,relative viability,[24]; first compound 0.1265 µM,0.0511
same,relative viability,[24]; first compound 0.4 µM,0.0612
same,relative viability,[24]; first compound 1.265 µM,0.0684
same,relative viability,[24]; first compound 4 µM,0.0605
